Test results from PMC3362725, “An open-label, phase 1 study evaluating safety, tolerability, and pharmacokinetics of linifanib (ABT-869) in Japanese patients with solid tumors” (Cancer Chemotherapy and Pharmacology, 2012).
Values joined by “and” are separate entries in the source; they are usually repeats but may differ in a detail not shown here. Identical values can stand only once. Marks after values point to notes of the source that are not given here.

Assay: Safety and tolerability: adverse events per CTCAE v3, dose-limiting toxicity, phase 1 study
Assay type: in vivo, human (Japanese patients with solid tumors)
Conditions: for dose-limiting toxicity observed: one patient
Method: A standard 3 + 3 design determined the dose level assignment. Patients were assigned to one of four sequential dose cohorts of once-a-day dose regimen of oral linifanib: 0.05, 0.10, 0.20, or 0.25 mg/kg, administered in the morning. […] Dose-limiting toxicity (DLT) was defined as Grade 4 neutropenia lasting >7 days, Grade 4 thrombocytopenia or decreased hemoglobin, Grade 3 or greater thrombocytopenia (if blood transfusion was required), febrile neutropenia, non-hematological toxicity except for manageable nausea, vomiting, anorexia, diarrhea, constipation or electrolyte abnormality, or a toxicity that required suspension of study drug for >7 days.
Patients self-administered linifanib once daily, on a 21-day cycle after fasting, and treatment continued until disease progression or intolerable toxicity. […] The initial oral dose, 2.5–25.0 mg in increments of 2.5 mg, was determined by the patients’ weights. […] The dose was reduced by 5.0 mg for patients ≥86 kg in the 0.10 mg/kg cohort, for patients in the 0.20 mg/kg cohort who were ≥81 kg at the first reduction and 61–80 and ≥96 kg at the 2nd reduction, and for patients in the 0.25 mg/kg cohort who were ≥66 kg at the first reduction and ≥86 kg at the second reduction. Patients were discontinued if they required dose reduction, specified by cohort: Any reduction (0.05 mg/kg cohort); >1 reduction (0.10 mg/kg cohort, and patients ≤31 kg in the 0.20 mg/kg cohort with an initial 5 mg dose); >2 reductions (0.25 mg/kg cohort, and patients ≥32 kg in the 0.20 mg/kg cohort with an initial ≥7.5 mg dose).
Baseline evaluations included physical examination, body weight, vital signs, 12-lead electrocardiogram, ECOG PS assessment, pregnancy test, laboratory tests, and multiple-gated acquisition scan/echocardiogram. Tumor response and/or disease progression was assessed by computerized tomography (CT) scan or magnetic resonance imaging (MRI) per RECIST [20] at screening and on Day (D) 1 of every second cycle prior to the subsequent treatment period, until tumor progression or until final visit. Complete response and partial response (PR) were defined according to RECIST [20]; objective response rate (ORR) was defined as the proportion of patients with best response of PR or CR among the study population. Safety assessments included laboratory test results and adverse events (AEs), which were graded according to CTCAE v3 [18] and coded by medical dictionary of regulatory activities (MedDRA) 1.0.

## Cc1ccc(F)c(NC(=O)Nc2ccc(-c3cccc4[nH]nc(N)c34)cc2)c1 [linifanib, N-(4-(3-amino-1H-indazol-4-yl)phenyl)-N’-(2-fluoro-5-methylphenyl)urea]
0.05 mg/kg dose
  Grade 3 linifanib-related AEs: no Grade 3 linifanib-related AEs
0.05 mg/kg n = 3, G1
  ALT increased, linifanib-related AE, patients: 1
  AST increased, linifanib-related AE, patients: 1
  Anorexia, linifanib-related AE, patients: 1
  Blood ALKP increased, linifanib-related AE, patients: 1
  Blood TG increased, linifanib-related AE, patients: 1
  Blood cholesterol increased, linifanib-related AE, patients: 2
  Blood urine present, linifanib-related AE, patients: 1
  Diarrhea, linifanib-related AE, patients: 1
  Hypertension, linifanib-related AE, patients: 1
  Neutropenia, linifanib-related AE, patients: 2
  Rash, linifanib-related AE, patients: 1
  Weight decreased, linifanib-related AE, patients: 2
0.05 mg/kg n = 3, G2
  Blood ALKP increased, linifanib-related AE, patients: 1
  Hypertension, linifanib-related AE, patients: 2
0.10 mg/kg cohort
  dose-limiting toxicity observed: Grade 3 ALT increase
0.10 mg/kg dose
  Grade 3 linifanib-related AEs: three
0.10 mg/kg n = 6, G1
  ALT increased, linifanib-related AE, patients: 2
  AST increased, linifanib-related AE, patients: 4
  Anorexia, linifanib-related AE, patients: 2
  Blood ALKP increased, linifanib-related AE, patients: 1
  Blood TG increased, linifanib-related AE, patients: 3
  Blood TSH increased, linifanib-related AE, patients: 3
  Blood cholesterol increased, linifanib-related AE, patients: 3
  Blood urine present, linifanib-related AE, patients: 2
  Diarrhea, linifanib-related AE, patients: 3
  Fatigue, linifanib-related AE, patients: 1
  GGT increased, linifanib-related AE, patients: 3
  Leukopenia, linifanib-related AE, patients: 2
  Neutropenia, linifanib-related AE, patients: 1
  Proteinuria, linifanib-related AE, patients: 1
  Rash, linifanib-related AE, patients: 3
  Thrombocytopenia, linifanib-related AE, patients: 1
  Weight decreased, linifanib-related AE, patients: 2
0.10 mg/kg n = 6, G2
  Blood TG increased, linifanib-related AE, patients: 1
  Fatigue, linifanib-related AE, patients: 1
  GGT increased, linifanib-related AE, patients: 1
  Hypertension, linifanib-related AE, patients: 5
  Leukopenia, linifanib-related AE, patients: 1
  Palmar-plantar erythrodysaesthesia, linifanib-related AE, patients: 3
  Proteinuria, linifanib-related AE, patients: 2
  Thrombocytopenia, linifanib-related AE, patients: 1
  Weight decreased, linifanib-related AE, patients: 1
0.10 mg/kg n = 6, G3
  Neutropenia, linifanib-related AE, patients: 1
  Proteinuria, linifanib-related AE, patients: 1
0.20 mg/kg n = 3, G1
  ALT increased, linifanib-related AE, patients: 2
  AST increased, linifanib-related AE, patients: 2
  Anorexia, linifanib-related AE, patients: 1
  Blood ALKP increased, linifanib-related AE, patients: 1
  Blood TG increased, linifanib-related AE, patients: 3
  Blood TSH increased, linifanib-related AE, patients: 3
  Blood cholesterol increased, linifanib-related AE, patients: 2
  Blood urine present, linifanib-related AE, patients: 2
  Diarrhea, linifanib-related AE, patients: 1
  Fatigue, linifanib-related AE, patients: 1
  GGT increased, linifanib-related AE, patients: 1
  Leukopenia, linifanib-related AE, patients: 2
  Rash, linifanib-related AE, patients: 1
  T-wave abnormality, linifanib-related AE, patients: 1
  Weight decreased, linifanib-related AE, patients: 1
0.20 mg/kg n = 3, G2
  Anorexia, linifanib-related AE, patients: 1
  Blood cholesterol increased, linifanib-related AE, patients: 1
  Fatigue, linifanib-related AE, patients: 1
  Hypertension, linifanib-related AE, patients: 2
  Neutropenia, linifanib-related AE, patients: 2
  Palmar-plantar erythrodysaesthesia, linifanib-related AE, patients: 3
  Thrombocytopenia, linifanib-related AE, patients: 2
  Weight decreased, linifanib-related AE, patients: 2
0.20 mg/kg n = 3, G3
  Diarrhea, linifanib-related AE, patients: 1
  Hypertension, linifanib-related AE, patients: 1
  Proteinuria, linifanib-related AE, patients: 1
0.25 mg/kg cohort, dose interruption >7 days, discontinuation on D29
  dose-limiting toxicity observed: Grade 1 T-wave inversion
0.25 mg/kg dose
  Grade 3 linifanib-related AEs: four
0.25 mg/kg n = 6, G1
  ALT increased, linifanib-related AE, patients: 3
  AST increased, linifanib-related AE, patients: 6
  Blood ALKP increased, linifanib-related AE, patients: 4
  Blood TG increased, linifanib-related AE, patients: 2
  Blood TSH increased, linifanib-related AE, patients: 1
  Blood cholesterol increased, linifanib-related AE, patients: 2
  Blood urine present, linifanib-related AE, patients: 4
  Fatigue, linifanib-related AE, patients: 4
  GGT increased, linifanib-related AE, patients: 3
  Leukopenia, linifanib-related AE, patients: 3
  Neutropenia, linifanib-related AE, patients: 2
  Proteinuria, linifanib-related AE, patients: 1
  Rash, linifanib-related AE, patients: 6
  Thrombocytopenia, linifanib-related AE, patients: 2
  Weight decreased, linifanib-related AE, patients: 1
0.25 mg/kg n = 6, G1, dose-limiting toxicity
  T-wave abnormality, linifanib-related AE, patients: 1^a
0.25 mg/kg n = 6, G2
  Anorexia, linifanib-related AE, patients: 2
  Blood TG increased, linifanib-related AE, patients: 1
  Blood TSH increased, linifanib-related AE, patients: 1
  Diarrhea, linifanib-related AE, patients: 2
  Fatigue, linifanib-related AE, patients: 1
  Hypertension, linifanib-related AE, patients: 6
  Leukopenia, linifanib-related AE, patients: 2
  Neutropenia, linifanib-related AE, patients: 2
  Palmar-plantar erythrodysaesthesia, linifanib-related AE, patients: 3
  Proteinuria, linifanib-related AE, patients: 2
  Thrombocytopenia, linifanib-related AE, patients: 2
  Weight decreased, linifanib-related AE, patients: 1
0.25 mg/kg n = 6, G3
  ALT increased, linifanib-related AE, patients: 1
  Neutropenia, linifanib-related AE, patients: 1
  Proteinuria, linifanib-related AE, patients: 2
18 patients
  dose reductions or interruptions for hypertension, neutropenia, or leucopenia: no dose reductions or interruptions
All patients N = 18, any grade
  ALT increased, linifanib-related AE, patients: 10 (56) n (%)
  AST increased, linifanib-related AE, patients: 13 (72) n (%)
  Anorexia, linifanib-related AE, patients: 7 (39) n (%)
  Blood ALKP increased, linifanib-related AE, patients: 8 (44) n (%)
  Blood TG increased, linifanib-related AE, patients: 11 (61) n (%)
  Blood TSH increased, linifanib-related AE, patients: 8 (44) n (%)
  Blood cholesterol increased, linifanib-related AE, patients: 10 (56) n (%)
  Blood urine present, linifanib-related AE, patients: 9 (50) n (%)
  Diarrhea, linifanib-related AE, patients: 8 (44) n (%)
  Fatigue, linifanib-related AE, patients: 9 (50) n (%)
  GGT increased, linifanib-related AE, patients: 8 (44) n (%)
  Hypertension, linifanib-related AE, patients: 17 n (%) and 17 (94) n (%)
  Leukopenia, linifanib-related AE, patients: 10 (56) n (%)
  Neutropenia, linifanib-related AE, patients: 11 (61) n (%)
  Palmar-plantar erythrodysaesthesia, linifanib-related AE, patients: 9 (50) n (%)
  Proteinuria, linifanib-related AE, patients: 10 (56) n (%)
  Rash, linifanib-related AE, patients: 11 (61) n (%)
  T-wave abnormality, linifanib-related AE, patients: 2 (11) n (%)
  Thrombocytopenia, linifanib-related AE, patients: 8 (44) n (%)
  Weight decreased, linifanib-related AE, patients: 10 (56) n (%)
Japanese patients with solid tumors, dose range 0.05–0.25 mg/kg
  tolerability: well tolerated
All cohorts, 18 patients
  number of DLTs reported: Two
All doses, 18 patients
  Grade 4 or 5 AEs: no Grade 4 or 5 AEs
Of 16 who discontinued
  patients who discontinued due to AEs: two
